Assay results as given in US12391658B2, “Sulfoxide and sulfone glucokinase activators and methods of use thereof” (vTv Therapeutics LLC, priority 2020, dated 2025).
Values after ≈ are worked out from the molar mass of the structure shown. Like-named read-outs stand apart in the source and are kept apart here. Marks after values point to notes of the source that are not given here.

Columns and labels:
P-glycoprotein (P-gp) = biological target: T1, P-glycoprotein (P-gp) (Homo sapiens, UniProt P08183); experiment: P-gp transporter inhibition; format: in vitro ADME
T1 construct: the P-gp transporter expressed on Caco-2 cell monolayers; endogenous in cells; host or cells: Caco-2
T1 sequence (P08183 whole entry): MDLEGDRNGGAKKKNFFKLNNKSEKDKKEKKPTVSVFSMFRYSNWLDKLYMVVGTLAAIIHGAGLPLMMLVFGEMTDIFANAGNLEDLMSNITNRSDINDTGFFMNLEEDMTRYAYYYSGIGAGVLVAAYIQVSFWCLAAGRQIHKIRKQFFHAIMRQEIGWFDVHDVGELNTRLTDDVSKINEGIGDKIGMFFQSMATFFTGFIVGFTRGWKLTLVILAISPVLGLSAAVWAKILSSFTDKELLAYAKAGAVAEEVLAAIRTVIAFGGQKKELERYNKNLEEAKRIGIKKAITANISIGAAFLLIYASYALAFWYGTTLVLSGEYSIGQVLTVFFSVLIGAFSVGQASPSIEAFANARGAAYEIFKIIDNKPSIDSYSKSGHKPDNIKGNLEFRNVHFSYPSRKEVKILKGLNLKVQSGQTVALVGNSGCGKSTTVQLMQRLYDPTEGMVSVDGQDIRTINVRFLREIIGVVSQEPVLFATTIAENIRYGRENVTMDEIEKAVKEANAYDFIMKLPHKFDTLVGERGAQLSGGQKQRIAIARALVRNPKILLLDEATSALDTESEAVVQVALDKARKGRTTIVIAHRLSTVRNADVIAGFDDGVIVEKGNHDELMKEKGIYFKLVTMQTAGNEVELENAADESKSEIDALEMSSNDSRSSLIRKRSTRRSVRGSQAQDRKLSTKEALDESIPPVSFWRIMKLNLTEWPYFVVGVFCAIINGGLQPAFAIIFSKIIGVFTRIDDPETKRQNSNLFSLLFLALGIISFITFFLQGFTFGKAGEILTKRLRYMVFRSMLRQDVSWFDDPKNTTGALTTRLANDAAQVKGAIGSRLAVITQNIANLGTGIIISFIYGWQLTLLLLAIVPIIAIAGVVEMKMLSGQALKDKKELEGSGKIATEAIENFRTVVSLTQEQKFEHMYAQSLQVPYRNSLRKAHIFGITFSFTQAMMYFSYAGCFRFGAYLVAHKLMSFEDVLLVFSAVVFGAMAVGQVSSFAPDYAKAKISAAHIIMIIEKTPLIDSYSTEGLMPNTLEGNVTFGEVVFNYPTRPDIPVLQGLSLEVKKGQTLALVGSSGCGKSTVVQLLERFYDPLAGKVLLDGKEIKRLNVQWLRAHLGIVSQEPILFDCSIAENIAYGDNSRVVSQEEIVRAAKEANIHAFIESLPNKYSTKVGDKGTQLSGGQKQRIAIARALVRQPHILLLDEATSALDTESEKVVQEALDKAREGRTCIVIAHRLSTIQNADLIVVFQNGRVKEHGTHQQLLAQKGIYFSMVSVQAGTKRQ
Protocol: (§1) The cell-based bidirectional permeability assay (or monolayer efflux assay) is a method for determining transporter inhibition (such as P-glycoprotein (P-gp) or Breast Cancer Resistance Protein (BCRP)) potential of test compounds in drug discovery. The experimental protocol for this assay is well established and typically, bidirectional permeability of a known substrate is assessed alone and in the presence of a single concentration of test compound to estimate the inhibition potential.
(§2) The monolayer efflux assay, where the ratio of basolateral-to-apical (B→A) permeability versus apical-to-basolateral (A→B) permeability is compared with a value of 1, is regarded as the standard for identifying substrates. Due to concentration-dependent inhibition of active efflux on the apical side by inhibitors, the B→A permeability decreases whilst A→B permeability increases with ratio approaching unity as the dose of inhibitor increases. The affinity of inhibitor to efflux protein(s) may be studied by calculating the active flux that can be obtained from the B→A fluxes in the absence and presence of efflux inhibitors. Inhibition potency, determined by inhibitor concentration-dependent transport assay, is usually represented as an IC50 value, the concentration that gives 50% of maximum inhibition of a known P-gp or BCRP substrate. Specificity of the inhibitor to P-gp or BCRP may be determined by competitive assays, which involve a transport assay of a known substrate in the presence of known inhibitors (specific to various transporters) with and without test compounds. Thus, appropriate design of competitive inhibition assays using known selected substrates and modulators will show the specificity of an inhibitor towards an efflux pump.
The potential inhibitory activity of a compound on the P-gp transporter expressed on Caco-2 cell monolayers may be investigated in experiments monitoring the bi-directional transport of a test compound in the presence or absence of a P-gp inhibitor such as Cyclosporin A (CsA) or verapamil.
The potential inhibitory activity of a compound on the P-gp transporter expressed on Caco-2 cell monolayers may also be investigated in experiments monitoring the bi-directional transport of [^3H]-digoxin in the presence of increasing concentrations of a test compound (such as 1, 5, 20, 100, and 200 μg/mL or 1.6, 3.2, 16, 32, 160 and 320 μg/mL). If the efflux of [^3H]-digoxin is not inhibited by a test compound, the test compound is likely a poor inhibitor of P-gp. If the efflux of [^3H]-digoxin is inhibited by a test compound, the IC50 value may be calculated using a non-linear regression of permeability data collected at various concentrations.
(§3) The Caco-2 permeability, P-gp substrate and inhibitory activity, and BCRP substrate and inhibitory activity of Sulfoxide-1, Sufloxide-1A, Sulfoxide-1B, Sulfone-1, and SM-1 was investigated using procedures similar to those described above.

efflux transporter = experiment: Efflux substrate activity (monolayer efflux assay); format: in vitro ADME; settings: tested concentrations of 12.5 μg/mL and 50 μg/mL
Protocol: as §1, §2
The potential for P-glycoprotein (P-gp) substrate inhibitory activity of a test compound may be evaluated by determining a test compound's Caco-2 permeability in the presence or absence of a P-gp inhibitor such as Cyclosporin A (CsA) or verapamil.
(§4) The substrate and inhibitor potential of a test compound for the apical efflux transported breast cancer resistance protein (BCRP) may also be evaluated using a bidirectional permeability assessment where the controls are Ko143 (a potent inhibitor of BCRP) and E3S (estrone-3-sulphate, a substrate for BCRP) and across a range of test compound concentrations such as 1, 5, 20, 100, and 200 μg/mL or 1.6, 3.2, 16, 32, 160 and 320 μg/mL).
as §3
(§5) As summarized in Table 2 below, except for Sulfoxide-1B, all of the tested compounds had low Caco-2 cell permeability and were weak efflux transporter substrates at the tested concentrations of 12.5 μg/mL and 50 μg/mL.

Caco-2 monolayers = experiment: Caco-2 permeability; format: in vitro ADME, human; settings: tested concentrations of 12.5 μg/mL and 50 μg/mL
Source text: Differentiated Caco-2 cells form a polarized epithelial cell monolayer that provides a physical and biochemical barrier to the passage of ions and small molecules. Using commercially available kits, the Caco-2 monolayer may be used as an in vitro model of the human small intestinal mucosa to predict the intestinal permeability or absorption of orally administered drugs. Researchers have shown a correlation for some molecules between the in vitro apparent permeability (Papp) across Caco-2 monolayers and the in vivo fraction absorbed.
The permeability of a compound may be evaluated in a bi-directional transport experiments at multiple concentrations (such as 1, 2, 5, 20, 100 and 200 μg/mL) using Caco-2 monolayers. The apparent permeability coefficients (Papp) for a compound may be calculated and compared with the permeability of a high permeability marker (such as labetalol) and a low permeability marker (such as mannitol).
as §3, §5

[1] = biological target: T2, breast cancer resistance protein (BCRP) (Homo sapiens, UniProt Q9UNQ0); experiment: BCRP transporter inhibition; format: in vitro ADME
T2 construct: endogenous in cells
T2 sequence (Q9UNQ0 1-655): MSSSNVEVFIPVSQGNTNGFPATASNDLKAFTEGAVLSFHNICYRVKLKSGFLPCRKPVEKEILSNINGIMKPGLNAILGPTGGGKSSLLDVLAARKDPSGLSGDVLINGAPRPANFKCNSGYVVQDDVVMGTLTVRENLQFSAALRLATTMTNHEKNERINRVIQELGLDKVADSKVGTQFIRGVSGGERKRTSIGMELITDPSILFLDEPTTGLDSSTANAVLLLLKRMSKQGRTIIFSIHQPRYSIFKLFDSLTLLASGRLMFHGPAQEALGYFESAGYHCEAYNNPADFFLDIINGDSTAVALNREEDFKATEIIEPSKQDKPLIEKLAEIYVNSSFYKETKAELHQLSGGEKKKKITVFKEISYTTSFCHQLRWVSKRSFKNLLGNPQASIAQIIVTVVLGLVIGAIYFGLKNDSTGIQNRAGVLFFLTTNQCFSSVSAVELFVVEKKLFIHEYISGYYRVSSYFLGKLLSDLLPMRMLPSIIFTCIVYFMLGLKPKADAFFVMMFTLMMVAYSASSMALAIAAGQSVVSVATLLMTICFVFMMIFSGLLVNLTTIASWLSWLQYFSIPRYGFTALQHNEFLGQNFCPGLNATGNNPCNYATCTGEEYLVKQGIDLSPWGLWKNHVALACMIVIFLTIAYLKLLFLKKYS
Protocol: as §1, §2, §4, §3

Aqueous solubility = format: physicochemical; settings: for aqueous solubility compared with SM-1: across a range of pH's
Source text: The aqueous solubility of Sulfoxide-1, Sufloxide-1A, Sulfoxide-1B, Sulfone-1, and SM-1 was investigated.

[2] = 0.1N HCl, simulated gastric fluid, 0.1N HCl, read-out: Solubility
[3] = acetate buffer, pH 4.5, aqueous buffer, Acetate Buffer pH 4.5, read-out: Solubility
[4] = phosphate buffer, pH 6.5, aqueous buffer, Phosphate Buffer pH 6.5, read-out: Solubility

IC50 (P-glycoprotein (P-gp)) [µM]	Efflux Transporter Substrate (efflux transporter)	Caco-2 Permeability (Caco-2 monolayers)	BCRP inhibitory activity, rank among the tested compounds [1]	IC50 [1] [µM]	solubility (Aqueous solubility; [2]) [µg/mL]	solubility (Aqueous solubility; [3]) [µg/mL]	solubility (Aqueous solubility; [4]) [µg/mL]	P-gp inhibitory activity, rank among the tested compounds (P-glycoprotein (P-gp))	solubility (Aqueous solubility; 0.1N HCl) [µg/mL]	solubility (Aqueous solubility; Acetate Buffer pH 4.5) [µg/mL]	solubility (Aqueous solubility; Phosphate Buffer pH 6.5)	Structure (SMILES)	aqueous solubility compared with SM-1 (Aqueous solubility)
~212	Yes	Low	weakest BCRP inhibitors	> 212	30 (≈ 0.0636 mM)	2570 (≈ 5.45 mM)	2930 (≈ 6.21 mM)	–	–	–	–	CCCO[C@H]1CC[C@H](N(C(=O)Nc2ncc([S+]([O-])CC(=O)O)s2)C2CCCCC2)CC1 (relative stereo) [Sulfoxide-1, {2-[3-Cyclohexyl-3-(trans-4-propoxy-cyclohexyl)-ureido]-thiazol-5-ylsulfinyl}-acetic acid]	much greater aqueous solubility than SM-1
~138	Yes	Low	–	~170	120 (≈ 0.254 mM)	1630 (≈ 3.46 mM)	1940 (≈ 4.11 mM)	–	–	–	–	CCCO[C@H]1CC[C@H](N(C(=O)Nc2ncc([S+]([O-])CC(=O)O)s2)C2CCCCC2)CC1 (single isomer, unassigned) [Sulfoxide-1A, {2-[3-Cyclohexyl-3-(trans-4-propoxy-cyclohexyl)-ureido]-thiazol-5-ylsulfinyl}-acetic acid]	much greater aqueous solubility than SM-1
115	Yes	Low	strongest BCRP inhibitor	19.5	–	0.44 (≈ 0.000966 mM)	21 (≈ 0.0461 mM)	–	–	–	–	CCCO[C@H]1CC[C@H](N(C(=O)Nc2ncc(SCC(=O)O)s2)C2CCCCC2)CC1 [SM-1, {2-[3-cyclohexyl-3-(trans-4-propoxy-cyclohexyl)-ureido]-thiazol-5-ylsulfanyl}-acetic acid, reference compound]	–
~205	Yes	Low	weakest BCRP inhibitors	> 205	10 (≈ 0.0205 mM)	2070 (≈ 4.24 mM)	2100 (≈ 4.31 mM)	–	–	–	–	CCCO[C@H]1CC[C@H](N(C(=O)Nc2ncc(S(=O)(=O)CC(=O)O)s2)C2CCCCC2)CC1 [Sulfone-1, {2-[3-Cyclohexyl-3-(trans-4-propoxy-cyclohexyl)-ureido]-thiazol-5-ylsulfonyl}-acetic acid]	much greater aqueous solubility than SM-1

Structure (SMILES)	IC50 (P-glycoprotein (P-gp)) [µM]	Efflux Transporter Substrate (efflux transporter)	Caco-2 Permeability (Caco-2 monolayers)	BCRP inhibitory activity, rank among the tested compounds [1]	IC50 [1] [µM]	solubility (Aqueous solubility; [2]) [µg/mL]	solubility (Aqueous solubility; [3]) [µg/mL]	solubility (Aqueous solubility; [4]) [µg/mL]	P-gp inhibitory activity, rank among the tested compounds (P-glycoprotein (P-gp))	solubility (Aqueous solubility; 0.1N HCl) [µg/mL]	solubility (Aqueous solubility; Acetate Buffer pH 4.5) [µg/mL]	solubility (Aqueous solubility; Phosphate Buffer pH 6.5)	aqueous solubility compared with SM-1 (Aqueous solubility)
CCCO[C@H]1CC[C@H](N(C(=O)Nc2ncc([S+]([O-])CC(=O)O)s2)C2CCCCC2)CC1 (single isomer, unassigned) [Sulfoxide-1B, {2-[3-Cyclohexyl-3-(trans-4-propoxy-cyclohexyl)-ureido]-thiazol-5-ylsulfinyl}-acetic acid]	> 212	not an efflux transporter substrate and No	Moderate	weakest BCRP inhibitors	> 212	–	–	–	weakest P-gp inhibitor	120 (≈ 0.254 mM)	1850 (≈ 3.92 mM)	1990* μg/mL	much greater aqueous solubility than SM-1
